Data: patent US3950418A, “Vitamin A acid amides” (Hoffmann-La Roche Inc., priority 1970, dated 1976)

Columns and labels:
Format in all cases: in vivo
[1] = Acute toxicity, testing in the mouse; settings: in vivo, in rape oil; for LD50 at 240 h: 10 days
Description: (§1) Toxicity tests carried out in mice and rats gave the following results for acute toxicity:
(§2) 1. Vitamin A acid ethyl amide in rape oil (per os and intraperitoneal administration)
(§3) 2. Vitamin A acid ethanol amide in rape oil (intraperitoneal administration)
(§4) 3. Vitamin A acid diethyl amide, vitamin A acid n-butyl amide, vitamin A acid phenyl amide, vitamin A acid isopropyl amide, or vitamin A acid methyl amide in rape oil (intraperitoneal administration)

mouse = assay: Acute toxicity, testing in the mouse; settings: in rape oil
Description: as §1, §2, §3, §4

[2] = Acute toxicity, testing in the rat; settings: in vivo, in rape oil, per os and intraperitoneal administration
Description: as §1
(§5) Vitamin A acid ethyl amide in rape oil (per os and intraperitoneal administration)

rat = assay: Acute toxicity, testing in the rat; settings: in rape oil, per os and intraperitoneal administration
Description: as §1, §5

[3] = ip, intraperitoneal administration
[4] = intraperitoneal administration, 24 hrs.
[5] = intraperitoneal administration, 10 days
[6] = per os and intraperitoneal administration
[7] = per os and intraperitoneal administration, 20 days
[8] = per os and intraperitoneal administration, 24 hrs.
[9] = per os and intraperitoneal administration, 10 days

For `CC1=C(/C=C/C(C)=C/C=C/C(C)=C/C(=O)Nc2ccccc2)C(C)(C)CCC1` [vitamin A acid phenyl amide], which LD50 at 24 h [1, 3] is on record?
The LD50 at 24 h was greater than 4000 mg/kg.

What about the LD50 at 240 h [1, 3] of the same molecule?
Its LD50 at 240 h is greater than 4000 mg/kg.

And the LD10 (mouse; [4])?
Its LD10 is greater than 4000 mg/kg.

What about the LD90 (mouse; [4]) of the same molecule?
The LD90 was greater than 4000 mg/kg.

And the LD10 (mouse; [5])?
The LD10 was greater than 4000 mg/kg.

What about the LD90 (mouse; [5]) of the same molecule?
The LD90 was greater than 4000 mg/kg.

For `CCN(CC)C(=O)/C=C(C)/C=C/C=C(C)/C=C/C1=C(C)CCCC1(C)C` [Vitamin A acid diethyl amide, vitamin A acid diethyl amide], which LD50 at 24 h [1, 3] is on record?
The LD50 at 24 h was greater than 4000 mg/kg.

What about the LD50 at 240 h [1, 3] of the same molecule?
The LD50 at 240 h was greater than 4000 mg/kg.

And the LD10 (mouse; [4])?
The LD10 was greater than 4000 mg/kg.

What about the LD90 (mouse; [4]) of the same molecule?
Its LD90 is greater than 4000 mg/kg.

And the LD10 (mouse; [5])?
Its LD10 is greater than 4000 mg/kg.

What about the LD90 (mouse; [5]) of the same molecule?
The LD90 was greater than 4000 mg/kg.

Which LD50 at 24 h [1, 3] does the source give for `CC1=C(/C=C/C(C)=C/C=C/C(C)=C/C(=O)NC(C)C)C(C)(C)CCC1` [vitamin A acid isopropyl amide] here?
The LD50 at 24 h was greater than 4000 mg/kg.

What about the LD50 at 240 h [1, 3] of the same molecule?
Its LD50 at 240 h is greater than 4000 mg/kg.

What about the LD10 (mouse; [4]) of the same molecule?
Its LD10 is greater than 4000 mg/kg.

What about the LD90 (mouse; [4]) of the same molecule?
The LD90 was greater than 4000 mg/kg.

What about the LD10 (mouse; [5]) of the same molecule?
The LD10 was greater than 4000 mg/kg.

And the LD90 (mouse; [5])?
Its LD90 is greater than 4000 mg/kg.

With `CCCCNC(=O)/C=C(C)/C=C/C=C(C)/C=C/C1=C(C)CCCC1(C)C` [vitamin A acid n-butyl amide] as the molecule, how does the LD50 at 24 h [1, 3] read?
The LD50 at 24 h was greater than 4000 mg/kg.

What about the LD50 at 240 h [1, 3] of the same molecule?
Its LD50 at 240 h is greater than 4000 mg/kg.

And the LD10 (mouse; [4])?
Its LD10 is greater than 4000 mg/kg.

And the LD90 (mouse; [4])?
The LD90 was greater than 4000 mg/kg.

And the LD10 (mouse; [5])?
Its LD10 is greater than 4000 mg/kg.

And the LD90 (mouse; [5])?
The LD90 was greater than 4000 mg/kg.

Which results are given for `CNC(=O)/C=C(C)/C=C/C=C(C)/C=C/C1=C(C)CCCC1(C)C` [vitamin A acid methyl amide]?
LD50 at 24 h [1, 3]: > 4000 mg/kg; LD50 at 240 h [1, 3]: > 4000 mg/kg; LD10 (mouse; [4]): > 4000 mg/kg; LD90 (mouse; [4]): > 4000 mg/kg; LD10 (mouse; [5]): > 4000 mg/kg; LD90 (mouse; [5]): > 4000 mg/kg

What does the source list for `CCNC(=O)/C=C(C)/C=C/C=C(C)/C=C/C1=C(C)CCCC1(C)C` [Vitamin A acid ethyl amide, vitamin A acid monoethyl amide]?
LD50 at 24 h ([2]; 24 hrs.): > 4000 mg/kg; LD50 at 240 h ([2]; 10 days): > 4000 mg/kg; LD10 (rat; 24 hrs.): > 4000 mg/kg; LD90 (rat; 24 hrs.): > 4000 mg/kg; LD10 (rat; 10 days): > 4000 mg/kg; LD90 (rat; 10 days): > 4000 mg/kg; LD50 at 24 h [1, 6]: > 4000 mg/kg; LD50 at 240 h [1, 6]: > 4000 mg/kg; LD50 at 480 h [1, 7]: > 4000 mg/kg; LD10 (mouse; [8]): > 4000 mg/kg; LD90 (mouse; [8]): > 4000 mg/kg; LD10 (mouse; [9]): > 4000 mg/kg; LD90 (mouse; [9]): > 4000 mg/kg; LD10 (mouse; [7]): > 4000 mg/kg; LD90 (mouse; [7]): > 4000 mg/kg

What does the source list for `CC1=C(/C=C/C(C)=C/C=C/C(C)=C/C(=O)NCCO)C(C)(C)CCC1` [Vitamin A acid ethanol amide, vitamin A acid ethanol amide]?
LD50 at 24 h [1, 3]: > 4000 mg/kg; LD50 at 240 h [1, 3]: 1000 mg/kg; LD10 (mouse; [4]): > 4000 mg/kg; LD90 (mouse; [4]): > 4000 mg/kg; LD10 (mouse; [5]): 710 mg/kg; LD90 (mouse; [5]): 1400 mg/kg
